Assay results as given in patent US20260234188A1, “CHEMOKINE-BINDING PEPTIDES” (Oxford University Innovation Limited, priority 2022, published 2026).
Entries after “also recorded” stand apart in the source; their conditions may differ.

Tested on: panel of up to 42 human chemokines
Assay: Phage-display next generation sequencing screen of overlapping hexadecapeptide libraries, chemokines displayed on streptavidin beads
Format: binding
Conditions: log2E greater than 5, chemokines named by first part of UniProt Entry Name
Excerpt: FIG. 1. Exemplar results from phage display screens. Phage-display libraries were constructed and analysed as described in (McLaughlin, 2013) (Tonikian, 2007). […] FIG. 1A, CC chemokines against evasin A library. FIG. 1B, CXC chemokines against the evasin B library. FIG. 1C, CXC and CX3C chemokines against the viral chemokine binding protein library. FIG. 1D, CXC chemokines against the chemokine library. […] Identified hexadecapeptides were mapped to the position in the originating protein (x-axis) and to fold enrichment (log 2 E, left y-axis). Regions of interest (ROI) were defined where the cumulative residue log 2 E, (clog 2 E:r, right y-axis) exceeds the 95% upper confidence interval of the median clog 2 E:r for the entire protein (indicated as a horizontal dotted line in each panel). Proteins are referred to by their UniProt ID.
Hexadecapeptides were identified using a phage-display next generation sequencing approach (McLaughlin, 2013). Libraries containing a total of 55662 overlapping peptides (from the tick chemokine binding proteins shown in Tables 3A and 3B, the viral chemokine binding proteins shown in Table 3C, the human chemokines shown in Table 3 E, and the human/viral chemokine receptors and other chemokine-binding proteins shown in Table 3D) were first constructed, and then screened against a panel of up to 42 human chemokines, as shown in Table 3F.

Row | Substance | Chemokines Bound
1 | CR5519 (FLGLMCSVWTHLGMAL) | CCL1, CCL18,; also recorded: CCL2, CCL22,

Same assay, conditions: log2E greater than 5, chemokines named by first part of UniProt Entry Name, peptides binding complement C5a (control) excluded

Row | Substance | Chemokines Bound
2 | CR5519 (FLGLMCSVWTHLGMAL) | CCL28, X3CL1,; also recorded: CXL10, CXL11,; also recorded: SDF1, CXL13,; also recorded: CXL14, IL8
3 | CR5598 (FLLSLGIILFSYVEIL) | CCL18, CCL19, and CXL10, CXL11, and SDF1, CXL14, and IL8
4 | CR5669 (FLSIFYSVIFAIGLVG) | CCL17, CCL18,; also recorded: CCL19, CCL20,; also recorded: CCL28, X3CL1,; also recorded: CXL10, CXL14
5 | CR5737 (FLVVVYSIVSFLGILG) | CCL17, CCL18,; also recorded: CCL19, CCL2,; also recorded: CCL20, CCL22,; also recorded: CCL25, CCL28,; also recorded: X3CL1, CXL10,; also recorded: CXL13, CXL14
6 | CR5738 (FLWGIFPTVIFSYFYV) | CCL18, CCL22, and CCL8, X3CL1, and CXL10, CXL11, and IL8
7 | CR5768 (FMFVLSVLGNLTVVCV) | CCL19, CCL22,; also recorded: CCL25
8 | CR5775 (FMIFAYTFIVKTLVQA) | CCL17, CCL18, and CCL28, X3CL1, and CXL11, SDF1, and CXL13, CXL14, and IL8
9 | CR5776 (FMIFCYTFIVKTLVQA) | CCL1, CCL17,; also recorded: CCL19, CCL20,; also recorded: SDF1, CXL13
10 | CR6041 (FSAILLYIDDFSAYFS) | CCL17, CCL18,; also recorded: X3CL1, IL8
11 | CR6044 (FSALVTLITSLFGSIF) | CCL2, X3CL1,; also recorded: CXL10, IL8
12 | CR6068 (FSFFYVIFSKALHDVT) | CCL1, CCL18, and CCL22, CCL28, and SDF1
13 | CR6097 (FSIFWWIFAVIIAIPH) | CXL10, SDF1,; also recorded: IL8, CCL1,; also recorded: CCL15, CCL22,; also recorded: CCL5, X3CL1,; also recorded: CXL11, CXL13
14 | CR6098 (FSIIAVFYFLLARAIS) | CCL17, CCL20,; also recorded: CCL22, CXL10,; also recorded: CXL11, CXL13,; also recorded: CXL14, IL8
15 | CR6163 (FSRAIDIIYSLITSSN) | CCL17, CCL18,; also recorded: CCL2, CCL22,; also recorded: CCL28, X3CL1,; also recorded: CXL14
16 | CR6212 (FSTFSGMLVYILLLPV) | CXL11, CXL13, and IL8
17 | CR6269 (FTGMPPADEDYSPCML) | CCL11, CCL17,; also recorded: CCL18, CCL19,; also recorded: CCL20

Row | Substance | Chemokines Bound
18 | CR6324 (FTWNLVLSQFFSILAT) | CCL11, CCL28,; also recorded: X3CL1, CXL11,; also recorded: CXL13
19 | CR6489 (FWAVDAVANWYFGNFL) | CCL17, CCL18, and CCL22, CCL28, and CXL10, CXL14, and IL8
20 | CR6515 (FWTPYNIVLFLETLVE) | CCL20, CCL22, and CXL10, CXL13, and IL8
21 | CR6520 (FWWIFAVIIAIPHFMV) | CXL10, CXL11
22 | CR6558 (FYISLFAGVSFLINLS) | CCL17, CCL18,; also recorded: CCL19, CCL20,; also recorded: CCL22, CCL25,; also recorded: CCL28, X3CL1,; also recorded: CXL10, CXL11,; also recorded: SDF1, CXL13,; also recorded: CXL14, IL8
23 | CR6604 (FYVAMFASLCFITEIA) | CXL10, CXL11, and SDF1, CXL13, and IL8
24 | CR6605 (FYVAMFASLSFITEIA) | CXL10, CXL11, and IL8
25 | CR6611 (FYVITLFASDFVLMWC) | CCL22, CCL25,; also recorded: X3CL1, CXL13
26 | CR6623 (FYYIGFYSSMFFITLM) | CCL1, CCL17,; also recorded: CCL18, CCL19,; also recorded: CCL20, CCL22,; also recorded: CCL28, X3CL1,; also recorded: CXL10, CXL11,; also recorded: SDF1, CXL14
27 | CR6624 (FYYLYVYLDIFSVVAV) | CCL15, CCL17, and CCL18, CCL19, and CCL20, CCL22, and CCL25, CCL28, and X3CL1, CXL10, and CXL11, SDF1, and CXL13, CXL14, and IL8
28 | CR6746 (GDFLAKLLNMIFSISL) | CCL20, CCL25,; also recorded: CCL28
29 | CR6836 (GFFIPLMFMIFSYTFI) | CCL22, CXL14, and IL8
30 | CR7000 (GIFFIILLTIDRYLAV) | CCL17, X3CL1,; also recorded: CXL10
31 | CR7024 (GIITSVLAWVTAILAT) | CCL2, CCL22,; also recorded: CCL28, CXL10,; also recorded: CXL11, SDF1,; also recorded: CXL13, IL8
32 | CR7344 (GMGPGPWMNILWAWFI) | CCL1, CCL11,; also recorded: CCL17, CCL18,; also recorded: CCL19, CCL2,; also recorded: CCL20, CCL22,; also recorded: CCL25, CCL8,; also recorded: X3CL1, CXL10,; also recorded: CXL11, SDF1,; also recorded: CXL14, IL8
